Experimental data taken from US20170119844A1, “HEMOSTATIC PHARMACEUTICAL COMPOSITION” (OTSUKA CHEMICAL CO., LTD., priority 2014, published 2017).

Test: Solubility in ultrapure water when preparing peptide solutions
Type: physicochemical

SMILES: CC(=O)N[C@@H](CCCNC(=N)N)C(=O)N[C@@H](C)C(=O)N[C@@H](CC(=O)O)C(=O)N[C@@H](C)C(=O)N[C@@H](CCCNC(=N)N)C(=O)N[C@@H](C)C(=O)N[C@@H](CC(=O)O)C(=O)N[C@@H](C)C(=O)N[C@@H](CCCNC(=N)N)C(=O)N[C@@H](C)C(=O)N[C@@H](CC(=O)O)C(=O)N[C@@H](C)C(=O)N[C@@H](CCCNC(=N)N)C(=O)N[C@@H](C)C(=O)N[C@@H](CC(=O)O)C(=O)N[C@@H](C)C(N)=O [(RADA)4]
- solubility in water: did not completely dissolve at a concentration of 2% by weight or higher
